Columns and labels:
[1] = system: Human immunodeficiency virus 1; assay: Antiviral activity against VSV-G protein pseudotyped HIV1 luciferase reporter virus in mixture of human HeLa/JC53 cells assessed as luminescence after 48 hrs; format: functional, organism-based; settings: Human immunodeficiency virus 1, Hela-JC53, 48 h
[2] = system: Human immunodeficiency virus 1; assay: Antiviral activity against VSV-G protein pseudotyped HIV1 luciferase reporter virus in mixture of human HeLa/JC53 cells assessed as luminescence after 48 hrs in presence of 40% human serum; format: functional, organism-based; settings: Human immunodeficiency virus 1, Hela-JC53, 48 h
[3] = Metabolic stability in human liver microsome assessed as compound remaining after 30 mins; format: ADME; settings: liver microsomes, read-out: Stability
[4] = Plasma clearance in rat at 2 mg/kg, iv; format: ADME, organism-based; design: dose 2 mg/kg, route intravenous
[5] = Volume of distribution in rat at 2 mg/kg, iv; format: ADME, organism-based; design: dose 2 mg/kg, route intravenous; settings: in vivo
[6] = Cmax in rat at 5 mg/kg, po; format: ADME, organism-based; design: dose 5 mg/kg, route oral; settings: in vivo
[7] = AUC in rat at 5 mg/kg, po; format: ADME, organism-based; design: dose 5 mg/kg, route oral; settings: plasma
[8] = Half life in rat at 5 mg/kg, po; format: ADME, organism-based; design: dose 5 mg/kg, route oral; settings: in vivo
[9] = Oral bioavailability in rat at 5 mg/kg; format: ADME, organism-based; settings: in vivo
[10] = Plasma clearance in Beagle dog at 1 mg/kg, iv; format: ADME, organism-based, Canis lupus familiaris; design: dose 1 mg/kg, route intravenous
[11] = Volume of distribution in Beagle dog at 1 mg/kg, iv; format: ADME, organism-based, Canis lupus familiaris; design: dose 1 mg/kg, route intravenous; settings: in vivo
[12] = Half life in Beagle dog at 1 mg/kg, iv; format: ADME, organism-based, Canis lupus familiaris; design: dose 1 mg/kg, route intravenous; settings: in vivo
[13] = Plasma clearance in rhesus monkey at 1 mg/kg, iv; format: ADME, organism-based, Macaca mulatta; design: dose 1 mg/kg, route intravenous
[14] = Volume of distribution in rhesus monkey at 1 mg/kg, iv; format: ADME, organism-based, Macaca mulatta; design: dose 1 mg/kg, route intravenous; settings: in vivo
[15] = Half life in rhesus monkey at 1 mg/kg, iv; format: ADME, organism-based, Macaca mulatta; design: dose 1 mg/kg, route intravenous; settings: in vivo

| Compound | EC50 [1] [nM] | EC50 [2] [nM] | remaining at 0.5 h [3] [%] | further results |
| --- | --- | --- | --- | --- |
| CC[C@@H](CO)n1cc(C(=O)O)c(=O)c2cc(Cc3cccc(Cl)c3F)c(OC)nc21 | 40 | 307 |  |  |
| COc1nc2c(cc1Cc1cccc(Cl)c1F)c(=O)c(C(=O)O)cn2[C@H](CO)C(C)C | 11 | 136 | 100 |  |
| CC(C)[C@@H](CO)n1cc(C(=O)O)c(=O)c2cc(Cc3cccc(Cl)c3F)ncc21 | 54 | 425 | 100 |  |
| CC(C)[C@@H](CO)n1cc(C(=O)O)c(=O)c2cc(Cc3cccc(Cl)c3F)cnc21 | 65 | 1940 | 99 |  |
| CC(C)[C@@H](CO)n1cc(C(=O)O)c(=O)c2nc(Cc3cccc(Cl)c3F)ccc21 | > 2500 |  |  |  |
| COc1nc(Cc2cccc(Cl)c2F)cc2c(=O)c(C(=O)O)cn([C@H](CO)C(C)C)c12 | 291 | 1770 |  |  |
| COc1nc2c(cc1Cc1cccc(Cl)c1F)c(=O)c(C(=O)O)cn2[C@@H](C)CO | 177 | 1050 |  |  |
| CCC[C@@H](CO)n1cc(C(=O)O)c(=O)c2cc(Cc3cccc(Cl)c3F)c(OC)nc21 | 180 | 1020 |  |  |
| CCCC[C@@H](CO)n1cc(C(=O)O)c(=O)c2cc(Cc3cccc(Cl)c3F)c(OC)nc21 | 20 | 245 |  |  |
| COc1nc2c(cc1Cc1cccc(Cl)c1F)c(=O)c(C(=O)O)cn2[C@H](CO)C(C)(C)C | 8.6 | 61 | 82 | clearance [4]: 2.67 mL/min/kg; Vd [5]: 2.31 L/kg; Cmax [6]: 1230 ng/mL; AUC [7]: 8500 ng·h/mL; half-life [8]: 174 min; bioavailability [9]: 31% |
| COc1nc2c(cc1Cc1cccc(Cl)c1F)c(=O)c(C(=O)O)cn2[C@H](CO)CC(C)C | 5.9 | 129 | 92 |  |
| CC(C)(C)[C@@H](CO)n1cc(C(=O)O)c(=O)c2cc(Cc3cccc(Cl)c3F)c(O)nc21 | 2.7 | 199 | 87 |  |
| CCOc1nc2c(cc1Cc1cccc(Cl)c1F)c(=O)c(C(=O)O)cn2[C@H](CO)C(C)(C)C | 1.4 | 19 | 84 |  |
| CC(C)Oc1nc2c(cc1Cc1cccc(Cl)c1F)c(=O)c(C(=O)O)cn2[C@H](CO)C(C)(C)C | 16 | 195 |  |  |
| CC(C)(C)[C@@H](CO)n1cc(C(=O)O)c(=O)c2cc(Cc3cccc(Cl)c3F)c(OCCO)nc21 | 0.9 | 2.4 | 45 |  |
| CC(C)(C)[C@@H](CO)n1cc(C(=O)O)c(=O)c2cc(Cc3cccc(Cl)c3F)c(N3CCOCC3)nc21 | 9.9 | 39 | 97 | clearance [4]: 7 mL/min/kg; Vd [5]: 4.02 L/kg; Cmax [6]: 414 ng/mL; AUC [7]: 2700 ng·h/mL; half-life [8]: 156 min; bioavailability [9]: 26%; clearance [10]: 10 mL/min/kg; Vd [11]: 1.03 L/kg; half-life [12]: 156 min; clearance [13]: 19.7 mL/min/kg; Vd [14]: 3.06 L/kg; half-life [15]: 486 min |
| COc1nc2c(cc1Nc1cccc(Cl)c1F)c(=O)c(C(=O)O)cn2[C@H](CO)C(C)C | > 2500 |  |  |  |
| COc1nc2c(cc1Nc1ccc(Cl)c(F)c1)c(=O)c(C(=O)O)cn2[C@H](CO)C(C)C | > 2500 |  |  |  |
| COc1nc2c(cc1Nc1ccc(F)cc1)c(=O)c(C(=O)O)cn2[C@H](CO)C(C)C | > 2500 |  |  |  |
| COc1nc2c(cc1NCc1cccc(Cl)c1F)c(=O)c(C(=O)O)cn2[C@H](CO)C(C)C | 490 | 2680 |  |  |
| COc1nc2c(cc1NCc1ccc(F)cc1)c(=O)c(C(=O)O)cn2[C@H](CO)C(C)C | 98 | 421 | 87 |  |
| COc1nc2c(cc1NCc1ccc(F)cc1)c(=O)c(C(=O)O)cn2[C@H](CO)C(C)(C)C | 150 | 385 |  |  |
| COc1nc2c(cc1NCc1cccc(F)c1)c(=O)c(C(=O)O)cn2[C@H](CO)C(C)C | 1460 | 1590 |  |  |
| COc1nc2c(cc1NCc1ccccc1F)c(=O)c(C(=O)O)cn2[C@H](CO)C(C)C | 81 | 283 | 97 |  |
| COc1nc2c(cc1NCc1ccc(F)cc1F)c(=O)c(C(=O)O)cn2[C@H](CO)C(C)C | 4.6 | 139 | 87 |  |
| COc1nc2c(cc1NCc1c(F)cc(F)cc1F)c(=O)c(C(=O)O)cn2[C@H](CO)C(C)C | 1.4 | 52 | 82 |  |
| COc1nc2c(cc1NCc1c(F)cc(F)cc1F)c(=O)c(C(=O)O)cn2[C@H](CO)C(C)(C)C | 7.6 | 42 | 75 | clearance [4]: 5.83 mL/min/kg; Vd [5]: 4.18 L/kg; Cmax [6]: 666 ng/mL; AUC [7]: 2890 ng·h/mL; half-life [8]: 222 min; bioavailability [9]: 23%; clearance [10]: 15.5 mL/min/kg; Vd [11]: 1.93 L/kg; half-life [12]: 120 min; clearance [13]: 44.2 mL/min/kg; Vd [14]: 3.93 L/kg; half-life [15]: 132 min |
| COc1cc2c(cc1Cc1cccc(Cl)c1F)c(=O)c(C(=O)O)cn2[C@H](CO)C(C)C [ELVITEGRAVIR] | 0.7 | 36 | 38 | clearance [4]: 3.83 mL/min/kg; Vd [5]: 2.74 L/kg; Cmax [6]: 1140 ng/mL; AUC [7]: 5630 ng·h/mL; half-life [8]: 174 min; bioavailability [9]: 26%; clearance [10]: 10 mL/min/kg; Vd [11]: 2.38 L/kg; half-life [12]: 216 min; clearance [13]: 7.17 mL/min/kg; Vd [14]: 1.99 L/kg; half-life [15]: 192 min |
